One test deals with T1, p110α (Homo sapiens, UniProt P42336).
T1 construct: purchased Upstate Millipore
Briefly: p110α radioactive lipid kinase assay (PI3Kα). Conditions: 25 μM ATP, 2 h at RT, read-out: IC50 in μM (PI3 kinase activity). It is filed as biochemical. How it is done: Protocol for Kinase Assay (PI3Kα)
p110α Radioactive Lipid Kinase Assay
The assay was designed as in the reference, Journal of Biomolecular Screening, 2002, Vol. 7, No. 5, 441-450, the disclosure of which is incorporated by reference for the teaching of the assay.
The p110α biochemical assay was performed using a radioactive assay measuring the incorporation of ^32P into the p110α substrate, phosphatidylinsoitol (PI). For the generation of IC50 curves, the reaction was performed in a 96-well MaxiSorp plates. Plates were pre-coated with 4 μg/well of a 1:1 ratio of phosphatidylinositol (PI: Avanti #840042C) and phosphatidylserine (PS: Avanti #840032C) diluted in CHCl3. Equal amount of p110α (Upstate Millipore) protein was added to each well, containing reaction buffer (50 mM MOPSO pH7.0, 100 mM NaCl, 4 mM MgCl2, 0.1% (w/v) BSA) whereas, for negative control, only reaction buffer was added. Test compounds (referred to by example nos. in the following table 1) dissolved in DMSO were treated at nine-point dose responses. Reactions were initiated by the addition of 25 μM ATP solution containing 50 μCi/ml [γ-^32P]-ATP and incubated at RT for 2 h with gentle shaking. Reactions were finally terminated by the addition of 50 mM EDTA stock solution. Plates were washed 3 times with TBS buffer. The plates were air dried, Microscint 0 (Perkin Elmer) was added to each well and the plates were sealed. The radioactivity incorporated into the immobilized PI substrate was determined with Top Count (Perkin Elmer). Inhibition was calculated using the following equation: % inhibition=(Dcpm−Tcpm)/(Dcpm)×100 • Tcpm=^32P-cpm in presence of test compounds • Dcpm=^32P-cpm in DMSO control (enzyme control deducted) Results: IC50 values of test compounds for PI3 kinase activity is indicated in Table 1.

For test [1], the system named is A2780 (ovarian cell line). Briefly: Cytotoxicity assay (propidium iodide assay), A2780. The note with it: Homo sapiens; A2780 cells, 48 h treatment. The format is cell-based. The procedure, abridged: (§1)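 A2780 and PC3 cells, 3000/well, were treated with compound for 48 h after 18-24 h attachment. After washing, propidium iodide 7 μg/ml was added, followed by freeze-thaw at −70 °C and a fluorescence read. Viability was taken relative to untreated wells, with IC50 derived from the curves.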

In the next test the test system is PC3 (prostate cell line). The test can be described thus: Cytotoxicity assay (propidium iodide assay), PC3. The format is cell-based. The note with it: Homo sapiens, PC-3; PC3 cells, 48 h treatment. The procedure, abridged:
as §1

As a reminder, the IC50 is the concentration that inhibits the measured activity by half.

T1 sequence (P42336 whole entry, species assumed): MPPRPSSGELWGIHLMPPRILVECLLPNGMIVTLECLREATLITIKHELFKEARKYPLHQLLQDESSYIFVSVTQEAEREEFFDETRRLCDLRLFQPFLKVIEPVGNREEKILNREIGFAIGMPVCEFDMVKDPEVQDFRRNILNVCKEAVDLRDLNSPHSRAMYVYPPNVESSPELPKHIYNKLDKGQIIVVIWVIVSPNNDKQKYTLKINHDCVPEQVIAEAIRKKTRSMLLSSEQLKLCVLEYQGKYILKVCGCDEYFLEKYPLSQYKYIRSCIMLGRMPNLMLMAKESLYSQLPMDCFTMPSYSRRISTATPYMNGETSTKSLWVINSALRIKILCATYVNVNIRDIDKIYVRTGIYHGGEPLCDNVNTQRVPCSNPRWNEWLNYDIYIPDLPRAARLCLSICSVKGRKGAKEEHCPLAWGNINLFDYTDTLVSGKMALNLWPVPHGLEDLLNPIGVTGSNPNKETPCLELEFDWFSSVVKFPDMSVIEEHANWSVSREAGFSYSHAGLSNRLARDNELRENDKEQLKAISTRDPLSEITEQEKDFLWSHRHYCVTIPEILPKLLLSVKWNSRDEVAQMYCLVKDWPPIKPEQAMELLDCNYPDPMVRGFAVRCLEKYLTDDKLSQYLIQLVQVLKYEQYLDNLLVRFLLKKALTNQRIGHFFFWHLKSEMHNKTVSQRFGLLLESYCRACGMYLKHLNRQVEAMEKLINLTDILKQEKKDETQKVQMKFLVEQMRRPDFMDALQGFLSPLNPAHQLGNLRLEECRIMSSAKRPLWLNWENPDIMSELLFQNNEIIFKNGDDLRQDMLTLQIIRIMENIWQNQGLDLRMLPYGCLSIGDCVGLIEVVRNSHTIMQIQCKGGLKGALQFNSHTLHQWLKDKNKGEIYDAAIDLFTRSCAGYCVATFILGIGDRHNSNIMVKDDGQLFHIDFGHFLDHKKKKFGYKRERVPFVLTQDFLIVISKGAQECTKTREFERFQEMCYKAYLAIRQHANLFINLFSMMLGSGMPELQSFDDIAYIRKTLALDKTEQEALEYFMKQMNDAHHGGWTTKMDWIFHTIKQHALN
T1 sequence (P27986 whole entry partner, species assumed): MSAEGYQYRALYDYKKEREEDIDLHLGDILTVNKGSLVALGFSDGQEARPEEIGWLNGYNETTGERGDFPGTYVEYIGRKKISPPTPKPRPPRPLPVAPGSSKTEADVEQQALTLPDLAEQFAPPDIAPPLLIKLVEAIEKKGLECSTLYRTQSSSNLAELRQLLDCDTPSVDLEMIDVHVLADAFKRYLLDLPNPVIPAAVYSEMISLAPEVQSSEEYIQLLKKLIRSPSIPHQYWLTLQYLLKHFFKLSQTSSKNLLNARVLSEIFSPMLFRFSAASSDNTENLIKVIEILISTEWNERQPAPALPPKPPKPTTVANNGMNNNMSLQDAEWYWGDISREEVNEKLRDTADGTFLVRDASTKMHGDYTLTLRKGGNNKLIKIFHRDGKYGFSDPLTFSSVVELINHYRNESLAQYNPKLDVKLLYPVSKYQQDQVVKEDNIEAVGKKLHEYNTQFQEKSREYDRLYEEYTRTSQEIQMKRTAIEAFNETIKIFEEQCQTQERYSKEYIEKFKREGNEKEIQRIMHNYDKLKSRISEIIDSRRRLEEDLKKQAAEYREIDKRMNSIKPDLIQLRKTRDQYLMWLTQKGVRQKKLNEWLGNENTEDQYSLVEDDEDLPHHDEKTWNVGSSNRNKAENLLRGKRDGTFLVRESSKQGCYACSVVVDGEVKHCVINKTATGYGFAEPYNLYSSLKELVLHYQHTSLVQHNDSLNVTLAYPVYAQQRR

For `Cn1c(=NC#N)n(-c2ccc(C(C)(C)C#N)nc2)c2c3cc(-c4ccc5[nH]ccc5c4)ccc3ncc21` [Example 73, N-(1-(6-(2-cyanopropan-2-yl)pyridin-3-yl)-8-(1H-indol-5-yl)-3-methyl-1H-imidazo[4,5-c]quinolin-2(3H)-ylidene)cyanamide], the values for the IC50 (at p110α; in test [1]; in the test with PC3 (prostate cell line)) were no more than 0.01 µM, no more than 0.5 µM and no more than 0.5 µM, respectively.
For the compound `COc1ncc(-c2ccc3ncc4c(c3c2)n(-c2ccc(C(C)(C)C#N)nc2)c(=NC#N)n4C)cc1NS(=O)(=O)c1ccccc1` [Example 125, N-(5-(2-(cyanoimino)-1-(6-(2-cyanopropan-2-yl)pyridin-3-yl)-3-methyl-2,3-dihydro-1H-imidazo[4,5-c]quinolin-8-yl)-2-methoxypyridin-3-yl)benzenesulfonamide], the IC50 on p110α was no more than 0.01 µM; in test [1] it was no more than 0.5 µM; with PC3 (prostate cell line), no more than 0.5 µM.
As to `Cn1c(=NC#N)n(-c2ccc(C(C)(C)C#N)nc2)c2c3cc(-c4cnc(N)c(C(F)(F)F)c4)ccc3ncc21` [Example 5, N-(8-(6-amino-5-(trifluoromethyl)pyridin-3-yl)-1-(6-(2-cyanopropan-2-yl)pyridin-3-yl)-3-methyl-1H-imidazo[4,5-c]quinolin-2(3H)-ylidene)cyanamide], the IC50 on p110α is no more than 0.01 µM; in test [1], no more than 0.5 µM; with PC3 (prostate cell line) it was no more than 0.5 µM.
Take `Cn1c(=NC#N)n(-c2ccc(C(C)(C)C#N)nc2)c2c3cc(-c4ccc(N5CCCCC5)nc4)ccc3ncc21` [Example 76, N-(1-(6-(2-cyanopropan-2-yl)pyridin-3-yl)-3-methyl-8-(6-(piperidin-1-yl)pyridin-3-yl)-1H-imidazo[4,5-c]quinolin-2(3H)-ylidene)cyanamide]: the results for the IC50 (at p110α; in test [1]; with PC3 (prostate cell line)) were 0.01 to 1 µM, no more than 0.5 µM and 0.5 to 2 µM, respectively.
In the case of `Cn1c(=NC#N)n(-c2ccc(C(C)(C)C#N)nc2)c2c3cc(-c4cncc(C(F)(F)F)c4)ccc3ncc21` [Example 70], the IC50 on p110α is no more than 0.01 µM; in test [1], no more than 0.5 µM; with PC3 (prostate cell line), no more than 0.5 µM.
As for `Cn1c(=NC#N)n(-c2ccc(C(C)(C)C#N)nc2)c2c3cc(-c4ccc5cc[nH]c5c4)ccc3ncc21` [Example 79, N-(1-(6-(2-cyanopropan-2-yl)pyridin-3-yl)-8-(1H-indol-6-yl)-3-methyl-1H-imidazo[4,5-c]quinolin-2(3H)-ylidene)cyanamide], the IC50 was no more than 0.01 µM on p110α, no more than 0.5 µM in test [1] and no more than 0.5 µM with PC3 (prostate cell line).
As to `Cn1c(=NC#N)n(-c2ccc(C(C)(C)C#N)nc2)c2c3cc(-c4cnc(N)nc4)ccc3ncc21` [Example 75, N-(8-(2-aminopyrimidin-5-yl)-1-(6-(2-cyanopropan-2-yl)pyridin-3-yl)-3-methyl-1H-imidazo[4,5-c]quinolin-2(3H)-ylidene)cyanamide], the results for the IC50 (on p110α; in test [1]; with PC3 (prostate cell line)) were 0.01 to 1 µM, no more than 0.5 µM and no more than 0.5 µM, respectively.
Regarding `Cn1c(=NC#N)n(-c2ccc(C(C)(C)C#N)nc2)c2c3cc(-c4ccc5cn[nH]c5c4)ccc3ncc21` [Example 77, N-(1-(6-(2-cyanopropan-2-yl)pyridin-3-yl)-8-(1H-indazol-6-yl)-3-methyl-1H-imidazo[4,5-c]quinolin-2(3H)-ylidene)cyanamide], the IC50 on p110α was 0.01 to 1 µM; in test [1], no more than 0.5 µM; in the test with PC3 (prostate cell line) it was no more than 0.5 µM.
As for `Cc1cc(-c2ccc3ncc4c(c3c2)n(-c2ccc(C(C)(C)C#N)nc2)c(=NC#N)n4C)cnc1F` [Example 78, N-(1-(6-(2-cyanopropan-2-yl)pyridin-3-yl)-8-(6-fluoro-5-methylpyridin-3-yl)-3-methyl-1H-imidazo[4,5-c]quinolin-2(3H)-ylidene)cyanamide], the IC50 was 0.01 to 1 µM on p110α, no more than 0.5 µM in test [1] and no more than 0.5 µM in the test on PC3 (prostate cell line).
Consider `COc1ncc(-c2ccc3ncc4c(c3c2)n(-c2ccc(C(C)(C)C#N)nc2)c(=NC#N)n4C)cc1N` [Example 95, N-(8-(5-amino-6-methoxypyridin-3-yl)-1-(6-(2-cyanopropan-2-yl)pyridin-3-yl)-3-methyl-1H-imidazo[4,5-c]quinolin-2(3H)-ylidene)cyanamide], for which the IC50 at p110α was 0.01 to 1 µM; in test [1], no more than 0.5 µM; with PC3 (prostate cell line), no more than 0.5 µM.

For the origin of these results see patent US9062046B2, “Substituted imidazoquinoline derivatives as kinase inhibitors” (Piramal Enterprises Limited, priority 2011, dated 2015).
